Source: PMC11940079, “Identification of a Possible Endocannabinoid-Mediated Mechanism of Action of Cetylated Fatty Acids” (Biomolecules, 2025)

How the values were obtained:
[1] = biological target: T1, human monoacylglycerol lipase (hMAGL) (Homo sapiens, UniProt Q99685); assay: spectrophotometric assay with 4-nitrophenyl acetate, recombinant human MAGL, dose-response; assay type: biochemical
T1 construct: gene MGLL
T1 sequence (Q99685 1-303): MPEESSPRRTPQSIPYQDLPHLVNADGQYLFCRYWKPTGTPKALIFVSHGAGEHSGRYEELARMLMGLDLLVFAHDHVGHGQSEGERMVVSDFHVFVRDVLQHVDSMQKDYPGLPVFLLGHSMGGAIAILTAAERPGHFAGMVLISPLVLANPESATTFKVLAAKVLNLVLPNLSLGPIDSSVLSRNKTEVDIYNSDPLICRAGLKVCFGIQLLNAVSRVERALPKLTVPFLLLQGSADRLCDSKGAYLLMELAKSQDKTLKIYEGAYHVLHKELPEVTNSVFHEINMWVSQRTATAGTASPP

[2] = biological target: T1, human monoacylglycerol lipase (hMAGL); assay: spectrophotometric assay with 4-nitrophenyl acetate, single-point % inhibition at […]; assay type: biochemical

| IC50 [1] [µM] | SMILES | spectrophotometric assay with 4-nitrophenyl acetate, single-point % inhibition a [2] |
| --- | --- | --- |
| 36 ± 4 | CCCCCCCCCCCCCCCCOC(=O)CCCCCCCCC [3b, Hexadecyl decanoate] | – |
| – | CCCCCC/C=C\CCCCCCCC(=O)OCCCCCCCCCCCCCCCC [3h, Hexadecyl (Z)-hexadec-9-enoate] | its close analogue 3h (cetyl palmitoleate), possessing the double bond at the same distance from the ester group as 3g, proved to be equally active |
| – | CCCCCCCC/C=C\CCCCCCCC(=O)OCCCCCCCCCCCCCCCC [3i, Hexadecyl oleate] | their longer analogue 3i (cetyl oleate) displayed slightly weaker potency in the same test |
